For 31 compounds, Activity and IC50 results are on record in ChEMBL document CHEMBL2390934, “Synthesis and evaluation of phenoxyoxazaphospholidine, phenoxyoxazaphosphinane, and benzodioxaphosphininamine sulfides and related compounds as potential anti-malarial agents” (Bioorg Med Chem Lett, 2013).

Calls of active or inactive are those of the source. The calls are words filed in the database; no cut-off is given here. Some results are limits rather than exact numbers.

The first experiment concerns Plasmodium falciparum. Kind of experiment: Antimalarial activity against chloroquine-resistant Plasmodium falciparum K1/Thailand infected in O positive erythrocytes assessed as parasite lactate dehydrogenase activity after 72 hrs. It is filed as functional, organism-based.
Conditions: not given
Take `CCOP(=S)(NCCCCNc1ccnc2cc(Cl)ccc12)Oc1ccc(C(F)(F)F)cc1` (configuration not stated): the outcome was Active.

For the next experiment, the system named is Plasmodium falciparum. Kind of experiment: Antimalarial activity against Plasmodium falciparum 3D7 infected in O positive erythrocytes assessed as parasite lactate dehydrogenase activity after 72 hrs. Particulars: 3D7, 72 h. It is filed as functional, organism-based.
As for `CCOP(=S)(NC(C)C)Oc1ccc(C(F)(F)F)cn1` (configuration not stated), the IC50 was 29 µM.

As to `Cc1ccc(OP2(=S)NCCO2)c([N+](=O)[O-])c1` (configuration not stated), the half-inhibitory concentration (IC50) is more than 128 µM. On the same count and under the same terms, for `Cc1cc([N+](=O)[O-])ccc1OP1(=S)NCCO1` (configuration not stated) the value was 51 µM; for `CC(C)NP1(=S)OCc2cc([N+](=O)[O-])ccc2O1` (configuration not stated), 108 µM; for `CCCNP1(=S)OCc2ccccc2O1` (configuration not stated), 95 µM. Same read-out and setting: for `CCOP(=S)(NC1CCCC1)Oc1cccc2cccnc12` (configuration not stated) the value was 25 µM; for `CCOP(=O)(NC(C)C)Oc1ccc(C(F)(F)F)cn1` (configuration not stated), 25 µM. On the same count and under the same terms, then `CC(C)CNP1(=S)OCc2cc([N+](=O)[O-])ccc2O1` (configuration not stated), with 118 µM; and `CCOP(=O)(NC(C)C)Oc1nccc(C)c1[N+](=O)[O-]` (configuration not stated), with 128 µM; and `FC(F)(F)c1ccc(OP2(=S)OCCS2)cc1` (configuration not stated), with 64 µM.

Consider `FC(F)(F)c1ccc(OP2(=S)NCCCO2)cc1` (configuration not stated), for which the half-inhibitory concentration (IC50) turned out to be 62 µM. Same read-out and setting: then `CCOP(=O)(NC(C)C)Oc1ccc2ccccc2c1` (configuration not stated), with 87 µM; and `Cc1ccc(OP2(=S)NCCCO2)c([N+](=O)[O-])c1` (configuration not stated), with more than 128 µM; and `Cc1ccc([N+](=O)[O-])c(OP2(=S)NCCCO2)c1` (configuration not stated), with more than 128 µM. As for `NCCCCNc1ccnc2cc(Cl)ccc12`, the IC50 came out at 0.64 µM. Same read-out and setting: then `CCOP(=O)(NC(C)C)Oc1cc(C)ccn1` (configuration not stated), with 128 µM; and `Cc1ccc(OP2(=S)NC(C)CO2)c([N+](=O)[O-])c1` (mixture of isomers), with 77 µM.

For `CCOP(=S)(NC1CCCC1)Oc1ccc2ncccc2c1` (configuration not stated), the half-maximal inhibitory concentration (IC50) turned out to be 19 µM.

As to `CC1COP(=S)(Oc2ccc(C(F)(F)F)cc2)N1` (racemic), the 50% inhibitory concentration (IC50) was more than 128 µM. On the same count and under the same terms, then `CC(C)NP1(=S)OCc2ccccc2O1` (configuration not stated), with 62 µM; and `CCOP(=O)(NC(C)C)Oc1ccc2ccccc2c1[N+](=O)[O-]` (configuration not stated), with 98 µM. The same measure, in the same setting: then `CC(C)CNP1(=S)OCc2ccccc2O1` (configuration not stated), with 58 µM.

On to `Cc1cc2c(c([N+](=O)[O-])c1)OP(=S)(NC(C)C)OC2` (configuration not stated), for which the IC50 was more than 128 µM. The same measure, in the same setting: for `CCOP(=O)(NC(C)C)Oc1cc(O)ccn1` (configuration not stated) the value was 128 µM. Still for that read-out and setting: for `FC(F)(F)c1ccc(OP2(=S)NCCO2)cc1` (configuration not stated) the value was 108 µM; for `Cc1ccc([N+](=O)[O-])cc1OP1(=S)NCCO1` (configuration not stated), 24 µM; for `CCOP(=O)(NC(C)C)Oc1cc(C)c([N+](=O)[O-])cn1` (configuration not stated), 25 µM. As for `CCOP(=O)(NC1CCCC1)Oc1ccc(C(F)(F)F)cn1` (configuration not stated), the IC50 is 23 µM. In the case of `Cc1cc([N+](=O)[O-])ccc1OP1(=S)NCCCO1` (configuration not stated), the concentration for half-maximal inhibition (IC50) was determined as 128 µM. The same measure, in the same setting: then `Cc1ccc([N+](=O)[O-])cc1OP1(=S)NCCCO1` (configuration not stated), with 108 µM; and `CCOP(=S)(NCCCCNc1ccnc2cc(Cl)ccc12)Oc1ccc(C(F)(F)F)cc1` (configuration not stated), with 0.038 µM.

As usually defined, the IC50 is the midpoint of a concentration-inhibition curve.
